Paper PMC10788917 (Journal of Medicinal Chemistry, 2023)
Like-named read-outs stand apart in the source and are kept apart here.

Experiments:
[1] = test system: THP-1 cells; experiment: CellTiter-Blue cell viability assay; assay type: cell-based; details: Homo sapiens, 72 h
Method: (§1) All cell lines were purchased from DSMZ (Braunschweig, Germany). The cell lines were regularly tested to exclude mycoplasma contamination and authenticated. […] Media were supplemented with 10% fetal calf serum (FCS), 10 units/mL penicillin, 10 μg/mL streptomycin, and 2 mM L-glutamine (all Gibco, Thermo Fisher Scientific).
(§2) To determine the IC50 of the selected compounds on the cell lines, the CellTiter-Blue cell viability assay (Promega) was performed. For this, cells were seeded in 96-well flat-bottom plates at a cell density of 10 000 cells/well. Cells were treated in triplicate with the compound of interest at various concentrations or with 10 μM Bortezomib (S1013; Selleck Chemicals, Houston, TX), as a positive control. […] Plates were measured using a GloMax plate reader (Promega), and IC50 values were determined by nonlinear regression using GraphPad Prism version 9.1.1 (GraphPad Software, Inc.), and the data are reported as mean values ± the standard error of the mean.

[2] = test system: OCI-AML3 cells; experiment: CellTiter-Blue cell viability assay; assay type: cell-based; details: Homo sapiens, OCI-AML-3; 72 h, HDAC8-dependent line, Figure 7B
Method: as §1, §2

[3] = test system: MV4-11 cells; experiment: CellTiter-Blue cell viability assay; assay type: cell-based; details: Homo sapiens, 72 h, HDAC8-dependent line, Figure 7B
Method: as §1, §2

[4] = test system: MOLM-13 cells; experiment: CellTiter-Blue cell viability assay; assay type: cell-based; details: Homo sapiens, 72 h, HDAC8-dependent line, Figure 7B
Method: as §1, §2

[5] = test system: SET2 cells; experiment: CellTiter-Blue cell viability assay; assay type: cell-based; details: Homo sapiens, SET-2; 72 h, HDAC8-independent line, Figure 7B
Method: as §1, §2

[6] = test system: HEL cells; experiment: CellTiter-Blue cell viability assay; assay type: cell-based; details: Homo sapiens, 72 h, HDAC8-independent line, Figure 7B
Method: as §1, §2

[7] = biological target: T1, HDAC8 (Homo sapiens, UniProt Q9BY41); experiment: Kinetic parameters of inactivation from time-dependent IC50; assay type: biochemical
T1 construct: one additional N-terminal residue 'H' (His) (N)
T1 sequence (Q9BY41 1-377): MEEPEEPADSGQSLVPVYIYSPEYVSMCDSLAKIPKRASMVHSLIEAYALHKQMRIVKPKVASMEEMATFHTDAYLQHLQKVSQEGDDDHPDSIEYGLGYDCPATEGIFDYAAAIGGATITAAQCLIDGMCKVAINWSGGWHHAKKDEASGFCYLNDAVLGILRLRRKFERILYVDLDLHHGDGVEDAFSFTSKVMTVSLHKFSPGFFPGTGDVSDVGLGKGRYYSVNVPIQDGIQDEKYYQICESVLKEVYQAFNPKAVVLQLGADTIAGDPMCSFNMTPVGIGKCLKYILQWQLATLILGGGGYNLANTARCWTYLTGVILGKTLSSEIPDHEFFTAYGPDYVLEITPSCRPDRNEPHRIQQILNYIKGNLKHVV
Method: Time-dependent IC50 values were obtained using the previously described enzyme activity assay after varying preincubation times.

[8] = test system: HL60 cells; experiment: CellTiter-Blue cell viability assay; assay type: cell-based; details: Homo sapiens, HL-60; 72 h, Figure 7A
Method: All cell lines were purchased from DSMZ (Braunschweig, Germany). The cell lines were regularly tested to exclude mycoplasma contamination and authenticated. Cell lines were grown at 37 °C and 5% CO2 in RPMI 1640 medium (Gibco, Thermo Fisher Scientific). Media were supplemented with 10% fetal calf serum (FCS), 10 units/mL penicillin, 10 μg/mL streptomycin, and 2 mM L-glutamine (all Gibco, Thermo Fisher Scientific).
To determine the IC50 of the selected compounds on the cell lines, the CellTiter-Blue cell viability assay (Promega) was performed. For this, cells were seeded in 96-well flat-bottom plates at a cell density of 10 000 cells/well. Cells were treated in triplicate with the compound of interest at various concentrations or with 10 μM Bortezomib (S1013; Selleck Chemicals, Houston, TX), as a positive control. The cell viability of treated cell lines was measured using CellTiter-Blue after incubation for 72 h. Plates were measured using a GloMax plate reader (Promega), and IC50 values were determined by nonlinear regression using GraphPad Prism version 9.1.1 (GraphPad Software, Inc.), and the data are reported as mean values ± the standard error of the mean.

[9] = biological target: HDAC4 (Homo sapiens, UniProt P56524); experiment: HDAC4 biochemical assay; details: preincubation 1 h, 1 nM HDAC4
Method: The enzyme activity assay was performed in assay buffer [25 mM Tris-HCl (pH 8.0), 50 mM NaCl, and 0.001% (v/v) Pluronic F-68] in black half-area 96-well microplates (Greiner Bio-One). […] The reaction was initiated by the addition of 20 μM Boc-Lys(TFA)-AMC (Bachem). […] The deacetylated substrate was cleaved with 0.42 mg/mL trypsin to release fluorescent 7-amino-4-methylcoumarin (AMC), which was detected with a microplate reader (PHERAstar FS […]) with fluorescence excitation at 360 nm and emission at 460 nm. IC50 values were calculated by generating dose–response curves in GraphPad Prism 6 and fitting those to a four-parameter logistic model.

[10] = test system: SMC3 acetylation; experiment: Western blot (immunoblot) in OCI-AML3 cells; assay type: cell-based; details: 72 h treatment
Method: Cells (2 ×10^6) were seeded in 2 mL of medium in a six-well plate (Greiner) and treated with the desired concentration of the compounds. […] Protein concentrations were determined by the Bradford protein assay. Thirty micrograms of cell lysates per treatment was fractionated on sodium dodecyl sulfate–polyacrylamide gels and transferred to nitrocellulose membranes (Cytiva).

HDAC4, sequence (P56524 whole entry, species assumed): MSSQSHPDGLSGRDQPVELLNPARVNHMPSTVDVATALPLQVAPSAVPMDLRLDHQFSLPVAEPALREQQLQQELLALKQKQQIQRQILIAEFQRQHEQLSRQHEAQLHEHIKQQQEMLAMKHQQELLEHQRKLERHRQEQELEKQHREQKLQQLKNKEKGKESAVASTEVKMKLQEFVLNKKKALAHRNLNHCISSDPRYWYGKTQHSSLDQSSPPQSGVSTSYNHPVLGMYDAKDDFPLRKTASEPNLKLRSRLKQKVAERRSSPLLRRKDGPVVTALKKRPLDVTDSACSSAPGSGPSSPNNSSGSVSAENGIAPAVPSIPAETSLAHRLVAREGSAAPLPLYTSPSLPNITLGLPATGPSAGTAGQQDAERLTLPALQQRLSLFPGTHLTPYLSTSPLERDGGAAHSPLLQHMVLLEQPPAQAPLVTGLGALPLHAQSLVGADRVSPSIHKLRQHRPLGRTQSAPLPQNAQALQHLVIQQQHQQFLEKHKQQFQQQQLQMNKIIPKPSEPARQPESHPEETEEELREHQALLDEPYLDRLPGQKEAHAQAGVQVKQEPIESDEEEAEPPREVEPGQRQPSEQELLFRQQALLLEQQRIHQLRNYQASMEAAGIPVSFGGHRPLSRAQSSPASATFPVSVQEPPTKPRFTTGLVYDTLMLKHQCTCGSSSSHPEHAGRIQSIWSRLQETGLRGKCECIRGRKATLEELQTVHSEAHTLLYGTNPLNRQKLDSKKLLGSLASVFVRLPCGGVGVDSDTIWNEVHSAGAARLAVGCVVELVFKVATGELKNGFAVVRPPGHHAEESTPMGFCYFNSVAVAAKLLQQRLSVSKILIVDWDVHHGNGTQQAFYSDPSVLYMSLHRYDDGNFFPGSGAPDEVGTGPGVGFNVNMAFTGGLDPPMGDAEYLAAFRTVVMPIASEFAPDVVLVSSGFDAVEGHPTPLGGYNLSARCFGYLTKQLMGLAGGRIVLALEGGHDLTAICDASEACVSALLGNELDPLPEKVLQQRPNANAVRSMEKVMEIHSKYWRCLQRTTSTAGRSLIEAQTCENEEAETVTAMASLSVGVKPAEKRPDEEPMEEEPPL

`C#Cc1c[n+](C)ccc1NC(=O)CC(=O)N1Cc2ccccc2C1.[I-]` [compound 3, 3-Ethynyl-4-[3-(isoindolin-2-yl)-3-oxopropanamido]-1-methylpyridin-1-ium Iodide] gave an IC50 ([1]; Figure 7A, read-out: cell viability IC50, THP-1) of 46.5 µM, an IC50 ([1]; HDAC8-independent line, Figure 7B, read-out: THP-1 IC50) of 78.1 ± 32.8 µM and an IC50 [2] of 27.2 ± 5.86 µM. The IC50 [3] was 8.23 ± 0.12 µM, the IC50 [4] was 7.08 ± 1.07 µM and the IC50 [5] was > 200 µM. The IC50 [6] was > 200 µM, the kinact/KI ([7]; HDAC8) was 1570 M⁻¹ s⁻¹ and the Ki ([7]; HDAC8, inactivation constant) was 3.2 µM. For the same compound, the kinact ([7]; HDAC8, time-dependent IC50, Krippendorff approach) was 0.0051 s⁻¹, the IC50 [8] was 161 µM and the IC50 [9] was 23.1 µM. For the same compound, the “concentration inducing an increased level of SMC3 acetylation” value [10] was 10 µM and the “effect on HDAC8 levels” value [10] was “not influencing HDAC8 levels”.
